The results in this text go back to paper PMC12715762, “Discovery of VU6052254: A Novel, Potent M1 Positive Allosteric Modulator” (ACS Chemical Neuroscience, 2025).

The nature of one data set: multispecies PK, summary. The note with it: rat, dog, NHP, plasma, across nonclinical species. Type of data set: in vivo.
A further data set addresses Androgen (Testosterone) (Homo sapiens, UniProt P10275). The experiment in a line: Eurofins radioligand binding.
In another data set the test system is Sprague-Dawley rats. The experiment in a line: contextual fear conditioning (CFC). The data set is classed as in vivo, rat. The method, then: Contextual Fear Conditioning
Contextual Fear Conditioning. Studies were conducted using conditioning chambers in sound attenuating cubicles equipped with a stainless steel grid floor for shock delivery and a video camera for recording freezing behavior (Med Associates, Fairfax, Vermont). Rats were acclimated to the apparatus for 3 days (10 minutes each day) prior to conditioning. On the training (conditioning) day, rats were pretreated by oral gavage with Vehicle (10% Tween 80) or Compound X […]
conditioning chamber that contained 1 mL 10% vanilla extract as odor cue.2 After a 180-sec

Another data set concerns the target Muscarinic M2 (Homo sapiens, UniProt P08172). The experiment in a line: Eurofins radioligand binding.
The next data set concerns the target Potassium Channel [KATP] (Cricetus cricetus, UniProt Q09427). The experiment in a line: Eurofins radioligand binding. The note with it: Hamster.
For data set [1], the target named is Epidermal Growth Factor (EGF) (Homo sapiens, UniProt P00533). The experiment in a line: Eurofins radioligand binding.
In the next data set the target is GABAB1A (Homo sapiens, UniProt Q9UBS5). The experiment in a line: Eurofins radioligand binding.
GABAB1A, sequence (Q9UBS5 15-961 limits assumed): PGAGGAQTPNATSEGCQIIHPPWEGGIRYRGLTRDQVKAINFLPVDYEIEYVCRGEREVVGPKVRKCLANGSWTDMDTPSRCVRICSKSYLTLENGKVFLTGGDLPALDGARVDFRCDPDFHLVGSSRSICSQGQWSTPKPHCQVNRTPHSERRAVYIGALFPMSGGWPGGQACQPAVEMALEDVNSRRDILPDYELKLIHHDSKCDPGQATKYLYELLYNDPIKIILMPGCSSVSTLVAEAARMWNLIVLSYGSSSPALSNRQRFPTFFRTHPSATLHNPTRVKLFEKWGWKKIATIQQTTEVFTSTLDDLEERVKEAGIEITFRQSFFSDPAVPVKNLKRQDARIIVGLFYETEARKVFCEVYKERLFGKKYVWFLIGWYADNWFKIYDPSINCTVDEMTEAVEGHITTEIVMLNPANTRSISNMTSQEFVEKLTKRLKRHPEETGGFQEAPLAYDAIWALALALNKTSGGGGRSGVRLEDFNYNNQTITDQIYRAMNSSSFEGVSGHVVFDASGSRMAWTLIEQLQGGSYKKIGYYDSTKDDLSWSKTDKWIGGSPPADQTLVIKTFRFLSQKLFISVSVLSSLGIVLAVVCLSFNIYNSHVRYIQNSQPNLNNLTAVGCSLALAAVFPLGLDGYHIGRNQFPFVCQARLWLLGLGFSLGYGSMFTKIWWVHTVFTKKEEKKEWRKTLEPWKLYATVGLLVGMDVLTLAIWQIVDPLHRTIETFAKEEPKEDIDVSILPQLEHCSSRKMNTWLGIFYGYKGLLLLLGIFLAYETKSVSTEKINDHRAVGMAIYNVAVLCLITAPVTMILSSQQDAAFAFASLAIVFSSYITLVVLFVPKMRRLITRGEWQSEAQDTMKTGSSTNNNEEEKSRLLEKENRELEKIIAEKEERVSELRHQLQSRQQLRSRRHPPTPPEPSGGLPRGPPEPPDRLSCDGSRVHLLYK
GABAB1A, sequence (O75899 42-941 partner): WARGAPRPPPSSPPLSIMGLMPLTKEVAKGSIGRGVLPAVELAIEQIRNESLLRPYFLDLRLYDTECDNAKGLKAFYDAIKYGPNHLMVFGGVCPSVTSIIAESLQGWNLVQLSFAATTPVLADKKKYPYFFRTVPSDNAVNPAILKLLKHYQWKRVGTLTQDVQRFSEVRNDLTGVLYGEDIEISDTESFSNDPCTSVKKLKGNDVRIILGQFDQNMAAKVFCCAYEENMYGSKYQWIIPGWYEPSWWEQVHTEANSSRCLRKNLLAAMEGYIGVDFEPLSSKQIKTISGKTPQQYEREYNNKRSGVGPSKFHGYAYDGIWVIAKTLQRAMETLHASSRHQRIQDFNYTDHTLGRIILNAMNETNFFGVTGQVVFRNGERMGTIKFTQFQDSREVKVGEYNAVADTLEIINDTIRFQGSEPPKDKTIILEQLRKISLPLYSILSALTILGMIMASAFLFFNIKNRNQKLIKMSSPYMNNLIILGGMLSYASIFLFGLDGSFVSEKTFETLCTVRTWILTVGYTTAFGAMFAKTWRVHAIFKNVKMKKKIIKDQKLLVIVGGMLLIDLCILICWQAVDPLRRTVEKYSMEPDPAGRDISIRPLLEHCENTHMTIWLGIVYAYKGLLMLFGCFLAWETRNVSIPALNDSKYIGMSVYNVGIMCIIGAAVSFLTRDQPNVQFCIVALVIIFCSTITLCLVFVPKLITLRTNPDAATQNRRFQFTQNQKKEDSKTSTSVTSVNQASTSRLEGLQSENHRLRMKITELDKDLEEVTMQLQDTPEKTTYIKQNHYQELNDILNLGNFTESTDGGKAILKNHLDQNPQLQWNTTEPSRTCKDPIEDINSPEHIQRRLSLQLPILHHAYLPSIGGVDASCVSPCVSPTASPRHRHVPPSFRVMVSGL
Another data set has as its system Glutamate, NMDA, Agonism. The experiment in a line: Eurofins radioligand binding. The note with it: Rat.
The next data set concerns the target Melatonin MT1 (Homo sapiens, UniProt P48039). The experiment in a line: Eurofins radioligand binding.
A short description of data set [2]: plasma protein binding, equilibrium dialysis (rat). The note with it: pH 7.4, rat (r), read-out: fu,plasma. Type of data set: in vitro ADME. The method, then:
(§1) Plasma protein binding and Brain homogenate binding: Determination of fraction unbound (f u) in plasma was conducted in vitro via equilibrium dialysis using HTDialysis (HTD) membrane plates. The top half of the plate was filled with 100 uL of Dubelco’s Phosphate Buffered Saline, pH 7.4 (DPBS). Compounds were diluted into plasma from each species (5 µM final concentration), which was aliquoted in triplicate to the ‘bottom half’ of the prepared HTD plate wells. The HTD plate was sealed and incubated for 6 hours at 37 °C. Following incubation, each well (both top and bottom halves) were transferred (20 µL) to the corresponding wells of a 96-shallow-well (V-bottom) plate. […]
(§2) The unbound fraction (f u) was calculated following the equation below, and mean values for each species were calculated from 3 replicates.
(§3) A similar approach was used to determine the degree of brain homogenate binding, which employed the same methodology and procedure with the following modifications: 1) a final compound concentration of 1 μM was used, 2) naïve rat brains were homogenized in DPBS (1:3 composition of brain: DPBS, w/w) using a Mini-Bead Beater™ machine in order to obtain brain homogenate, which was then treated in the same manner as the plasma samples in the previously described plasma protein binding assay. Fraction unbound for both plasma and brain samples was determined using Equation 4. […]
(In general: In equilibrium dialysis free small molecules cross a membrane that holds back macromolecules.)

A further data set has as its system GABAA, Muscimol, Central. The experiment in a line: Eurofins radioligand binding. The note with it: Rat.
Data set [3] in a line: brain homogenate binding (rat). The data set is classed as in vitro ADME. The note with it: pH 7.4, rat (r), read-out: fu,brain. The method, then:
as §1, §2, §3

The target in another data set is 3A5 (Homo sapiens, UniProt P20815). The experiment in a line: CYP450 phenotyping, recombinant enzymes. The data set is classed as in vitro ADME. The note with it: 3A5, panel of eight recombinant enzymes.
Data set [4] can be described thus: satellite IP PK study, brain exposure. The note with it: C57Bl6 mice, 30% captisol. The data set is classed as in vivo. From the text: These effects were absent when performed in M1 KO mice, confirming that these AEs are in fact M1-mediated. […] Total brain drug levels correlate better with PD efficacy ,− , versus free drug levels in brain, as the arbitrarily selected EC20 value for the in vitro PAM EC50 potency determination likely underestimates endogenous ACh tone. Thus, there is a significant therapeutic index for PAM 7 from this assay, and robust target-mediated convulsions were not present. To assess peripheral cholinergic toxicity, a modified Irwin neurological battery was performed to score autonomic or somatosensory side effects (Figure ). […] Still, if the dose and exposure required for efficacy afforded the appropriate therapeutic window, then PAM 7 could still advance.

Another data set concerns the target Interleukin IL-1 R1 (Homo sapiens, UniProt P14778). The experiment in a line: Eurofins radioligand binding.
For another data set, the target named is Adrenergic β2 (Homo sapiens, UniProt P07550). The experiment in a line: Eurofins radioligand binding.
For the next data set, the target named is Histamine H3 (Homo sapiens, UniProt Q9Y5N1). The experiment in a line: Eurofins radioligand binding.
Histamine H3, sequence (Q9Y5N1 whole entry): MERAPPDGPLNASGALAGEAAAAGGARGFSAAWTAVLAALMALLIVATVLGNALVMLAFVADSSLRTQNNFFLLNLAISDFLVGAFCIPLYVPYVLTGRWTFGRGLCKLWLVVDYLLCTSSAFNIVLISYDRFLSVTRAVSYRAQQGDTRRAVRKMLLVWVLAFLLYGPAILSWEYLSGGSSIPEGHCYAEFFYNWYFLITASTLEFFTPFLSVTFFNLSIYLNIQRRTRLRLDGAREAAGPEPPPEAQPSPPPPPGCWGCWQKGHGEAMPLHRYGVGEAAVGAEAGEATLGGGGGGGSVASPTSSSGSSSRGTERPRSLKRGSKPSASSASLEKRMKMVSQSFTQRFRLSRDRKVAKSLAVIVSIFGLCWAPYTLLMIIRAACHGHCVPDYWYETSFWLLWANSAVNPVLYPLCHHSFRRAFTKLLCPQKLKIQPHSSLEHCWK
Data set [5] relates to Glutamate, NMDA, Phencyclidine. The experiment in a line: Eurofins radioligand binding. The note with it: Rat.

Molecules are shown by their SMILES. “Also recorded” adds a separate entry of the source.

Potassium Channel [KATP], sequence (Q09427 whole entry): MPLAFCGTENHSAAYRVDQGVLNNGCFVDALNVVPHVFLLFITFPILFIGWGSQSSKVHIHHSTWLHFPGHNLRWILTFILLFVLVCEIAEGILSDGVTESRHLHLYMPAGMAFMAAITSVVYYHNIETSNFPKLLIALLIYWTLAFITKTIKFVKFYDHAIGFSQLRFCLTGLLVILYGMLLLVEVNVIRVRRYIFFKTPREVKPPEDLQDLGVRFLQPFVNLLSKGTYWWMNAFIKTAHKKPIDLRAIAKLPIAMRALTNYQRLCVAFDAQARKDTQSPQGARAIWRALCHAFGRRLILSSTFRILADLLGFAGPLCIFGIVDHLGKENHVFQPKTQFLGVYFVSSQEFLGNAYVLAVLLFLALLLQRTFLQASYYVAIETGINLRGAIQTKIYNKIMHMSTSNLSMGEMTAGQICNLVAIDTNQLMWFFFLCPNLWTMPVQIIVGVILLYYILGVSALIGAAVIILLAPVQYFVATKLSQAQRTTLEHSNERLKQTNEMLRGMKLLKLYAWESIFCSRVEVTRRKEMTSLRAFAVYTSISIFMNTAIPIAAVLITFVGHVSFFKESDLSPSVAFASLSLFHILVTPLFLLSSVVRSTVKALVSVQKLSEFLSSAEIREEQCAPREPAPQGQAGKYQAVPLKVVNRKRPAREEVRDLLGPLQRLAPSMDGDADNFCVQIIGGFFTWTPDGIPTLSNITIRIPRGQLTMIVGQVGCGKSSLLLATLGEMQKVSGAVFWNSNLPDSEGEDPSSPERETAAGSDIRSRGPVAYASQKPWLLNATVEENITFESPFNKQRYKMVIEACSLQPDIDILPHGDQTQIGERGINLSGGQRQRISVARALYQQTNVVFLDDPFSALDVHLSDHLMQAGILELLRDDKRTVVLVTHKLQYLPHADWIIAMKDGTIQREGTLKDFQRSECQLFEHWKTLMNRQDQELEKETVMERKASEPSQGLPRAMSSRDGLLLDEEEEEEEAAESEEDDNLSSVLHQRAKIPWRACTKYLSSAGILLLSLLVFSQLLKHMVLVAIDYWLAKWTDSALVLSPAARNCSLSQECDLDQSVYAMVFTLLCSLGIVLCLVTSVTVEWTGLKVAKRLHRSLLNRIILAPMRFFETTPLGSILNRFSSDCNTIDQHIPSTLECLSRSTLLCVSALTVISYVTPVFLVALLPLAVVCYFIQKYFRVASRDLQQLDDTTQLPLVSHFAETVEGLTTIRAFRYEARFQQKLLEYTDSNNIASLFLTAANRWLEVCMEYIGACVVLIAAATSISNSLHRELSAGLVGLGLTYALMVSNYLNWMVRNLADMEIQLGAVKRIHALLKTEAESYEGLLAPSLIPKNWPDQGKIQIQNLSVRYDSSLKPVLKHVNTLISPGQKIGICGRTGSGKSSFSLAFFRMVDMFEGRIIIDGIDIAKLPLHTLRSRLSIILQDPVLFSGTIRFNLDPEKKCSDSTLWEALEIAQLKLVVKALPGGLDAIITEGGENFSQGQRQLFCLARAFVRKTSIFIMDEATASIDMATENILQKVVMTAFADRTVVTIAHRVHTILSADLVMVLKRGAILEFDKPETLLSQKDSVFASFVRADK
Melatonin MT1, sequence (P48039 whole entry): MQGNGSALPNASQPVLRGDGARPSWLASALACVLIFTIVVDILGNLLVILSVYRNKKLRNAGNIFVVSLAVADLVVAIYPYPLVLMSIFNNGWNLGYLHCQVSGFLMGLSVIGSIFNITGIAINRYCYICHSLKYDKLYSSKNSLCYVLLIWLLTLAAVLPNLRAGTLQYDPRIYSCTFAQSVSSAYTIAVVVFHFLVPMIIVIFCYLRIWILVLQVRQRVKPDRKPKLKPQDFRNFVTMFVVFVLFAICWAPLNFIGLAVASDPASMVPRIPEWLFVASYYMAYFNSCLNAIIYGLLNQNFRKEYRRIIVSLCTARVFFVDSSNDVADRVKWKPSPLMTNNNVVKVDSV
Interleukin IL-1 R1, sequence (P14778 18-569): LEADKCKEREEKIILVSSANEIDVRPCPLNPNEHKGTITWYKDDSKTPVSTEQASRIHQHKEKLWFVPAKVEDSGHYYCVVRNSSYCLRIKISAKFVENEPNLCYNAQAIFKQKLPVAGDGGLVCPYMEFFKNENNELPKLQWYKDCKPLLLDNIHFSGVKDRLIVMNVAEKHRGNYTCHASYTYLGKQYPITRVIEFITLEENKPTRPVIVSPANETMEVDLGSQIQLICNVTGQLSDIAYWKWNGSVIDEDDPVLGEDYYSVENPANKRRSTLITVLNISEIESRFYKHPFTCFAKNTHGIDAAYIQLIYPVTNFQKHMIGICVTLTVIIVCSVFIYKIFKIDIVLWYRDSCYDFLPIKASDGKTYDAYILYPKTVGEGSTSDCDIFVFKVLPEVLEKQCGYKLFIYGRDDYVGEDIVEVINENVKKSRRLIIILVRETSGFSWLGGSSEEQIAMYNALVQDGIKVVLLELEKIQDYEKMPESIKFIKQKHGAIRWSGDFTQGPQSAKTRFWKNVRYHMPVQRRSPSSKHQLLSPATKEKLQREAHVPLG

By inhibition is commonly meant the relative decrease from the control value, in per cent. The % Inhibition is the relative decrease from the control value, in per cent. Consider `Cn1cc2c(-c3cc(F)c(CN4Cc5ncccc5C4=O)c(F)c3)ccc(C(C)(C)O)c2n1` [compound 7], for which the bioavailability in the data set “multispecies PK, summary” (read-out: %F, multispecies) is above 65%. In the data set “multispecies PK, summary” (read-out: Clp s, multispecies), the clearance is below 10 mL/min/kg. In addition, the inhibition at 10 µM at Androgen (Testosterone) is -4%; at Muscarinic M2, 3%; at Potassium Channel [KATP], 11%; in data set [1] it was -14%; at GABAB1A, 7%; on Melatonin MT1, -1%. Moreover, the figures for the inhibition at 10 µM at Interleukin IL-1 R1, at Adrenergic β2 and at Histamine H3 were -10%, -4% and -11%, respectively. Further, the “total brain concentration at CFC MED” value with Sprague-Dawley rats (0.3 mg/kg PO, rat) stood at 58 nM. Further, the “effect on acquisition of CFC” value in the data set with Sprague-Dawley rats (0.03-3 mg/kg PO, result in words) is “robust dose-dependent enhancement in the acquisition of contextual fear conditioning; also recorded: dose-dependently enhanced the acquisition of CFC”. Also, the “minimum effective dose (MED) in rat CFC” value in the data set on Sprague-Dawley rats (PO, 10% Tween 80 in water, male Sprague-Dawley rats) was 0.3 mg/kg. The “% Inhibition at 10 µM” value with Glutamate, NMDA, Agonism was -3%; with GABAA, Muscimol, Central, -10%; in [5], -1%. Further, in data set [2], the fraction unbound at 6 h, 5 µM is 0.023. Further, the fraction unbound at 6 h, 1 μM in data set [3] is 0.027. In addition, the “contribution to metabolism, CYP450 phenotyping” value on 3A5 was 3.2%. Further, the total brain exposure in data set [4] (56.6 mg/kg IP) was 29.8 µM; in data set [4] (100 mg/kg IP) it was 42.2 µM.
